Converted amounts (≈) assume the structure as drawn. Read-outs that look alike come from different tables or passages of the source.
Key:
AECO001 HSA AGP = assay: MIC broth microdilution, AECO001 HSA AGP; type: cell-based, E. coli
Procedure: Bacterial isolates were cultivated from −70° C. frozen stocks by overnight passages at 35° C. in ambient air on Mueller-Hinton agar (Beckton Dickinson, Franklin Lakes, N.J.). Clinical isolates tested were obtained from various geographically diverse hospitals in the US and abroad (Focus Diagnostics, Herndon, Va. and JMI, North Liberty, Iowa). Quality control strains were from the American Type Culture Collection (ATCC; Rockville, Md.). Additional primary panel strains were generated using standard molecular biology techniques.
Minimum Inhibitory Concentrations (MICs) were determined by the broth microdilution method in accordance with the Clinical and Laboratory Standards Institute (CLSI) guidelines. In brief, organism suspensions were adjusted to a 0.5 McFarland standard to yield a final inoculum between 3×10^5 and 7×10^5 colony-forming units (CFU)/mL. Drug dilutions and inocula were made in sterile, cation adjusted Mueller-Hinton Broth (Beckton Dickinson). An inoculum volume of 100 μL was added to wells containing 100 μL of broth with 2-fold serial dilutions of drug. All inoculated microdilution trays were incubated in ambient air at 35° C. for 18-24 hours. […] Performance of the assay was monitored by the use of laboratory quality-control strains and levofloxacin, a compound with a defined MIC spectrum, in accordance with CLSI guidelines.
*AECO001 is ATCC25922, AECO063 is ATCC25922 bearing an acrAB mutation, APAE001 is ATCC27853, APAE006 is a strain of P. aeruginosa in which all efflux pumps are inactivated, APAE006+PMBN indicates MICs with the indicated strain in the presence of 8 micrograms per milliliter of polymyxin B nonapeptide, AABA1060 is a clinical isolate of Acinetobacter baumannii, ASAU001 is a laboratory strain of S. aureus (ATCC29213).

[1] = system: APAE006 (strain of P. aeruginosa in which all efflux pumps are inactivated); assay: microbe, parasite or virus in culture; type: cell-based; conditions: for MIC: Pseudomonas aeruginosa
How it was run: (§1)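 Minimum inhibitory concentrations followed CLSI broth microdilution guidelines: cation-adjusted Mueller-Hinton broth, 2-fold serial drug dilutions, final inoculum 3×10^5–7×10^5 CFU/mL, ambient air at 35° C. for 18-24 hours. Quality-control strains and levofloxacin monitored performance.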

[2] = system: AABA1060 (clinical isolate of Acinetobacter baumannii); assay: MIC broth microdilution, AABA1060; type: cell-based; conditions: for MIC: Acinetobacter baumannii, read-out: MIC AABA1060
How it was run: (§2)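 CLSI-guided microdilution: bacteria passaged overnight at 35° C. on Mueller-Hinton agar, tested in cation-adjusted broth at a final 3×10^5–7×10^5 CFU/mL across 2-fold drug dilutions, read after 18-24 h at 35° C.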

[3] = system: AECO063 (ATCC25922 bearing an acrAB mutation); assay: microbe, parasite or virus in culture; type: cell-based, E. coli; conditions: for MIC: Escherichia coli, ATCC25922, read-out: MIC AECO063
How it was run: as §2

[4] = system: ASAU001 (laboratory strain of S. aureus, ATCC29213); assay: MIC broth microdilution, ASAU001; type: cell-based; conditions: for MIC: Staphylococcus aureus, ATCC29213, read-out: MIC ASAU001
How it was run: as §2

AECO001 (ATCC25922) = assay: MIC broth microdilution, AECO001; type: cell-based, E. coli; conditions: for MIC: Escherichia coli
How it was run: as §2

APAE001 (ATCC27853) = assay: MIC broth microdilution, APAE001; type: cell-based, P. aeruginosa; conditions: for MIC: Pseudomonas aeruginosa
How it was run: as §2

[5] = system: APAE006 in the presence of 8 micrograms per milliliter of polymyxin B nonapeptide; type: cell-based, P. aeruginosa; conditions: APAE006 with 8 micrograms per milliliter polymyxin B nonapeptide
How it was run: as §1

[6] = ATCC25922, read-out: MIC AECO001
[7] = read-out: MIC APAE006, APAE006, all efflux pumps inactivated
[8] = ATCC25922, read-out: MIC AECO001 HSA AGP
[9] = ATCC27853, read-out: MIC APAE001, APAE001 (ATCC27853)

SMILES | MIC (AECO001 HSA AGP; Escherichia coli) [µg/mL] | MIC ([1]; read-out: MIC APAE006, P. aeruginosa, all efflux pumps inactivated) [µg/mL] | MIC [2] [µg/mL] | MIC [3] [µg/mL] | MIC [4] [µg/mL] | MIC (AECO001 (ATCC25922); [6]) [µg/mL] | MIC (APAE001 (ATCC27853); ATCC27853, read-out: MIC APAE001, APAE001 is ATCC27853) [µg/mL] | MIC AECO001 HSA AGP (AECO001 HSA AGP) | MIC APAE006 ([1]; P. aeruginosa, all efflux pumps inactivated) | MIC AABA1060 ([2]; clinical isolate of Acinetobacter baumannii) | MIC AECO063 ([3]; ATCC25922 bearing an acrAB mutation) | MIC ASAU001 ([4]; S. aureus ATCC29213) | MIC AECO001 (AECO001 (ATCC25922); AECO001 is ATCC25922) | MIC APAE001 (APAE001 (ATCC27853); APAE001 is ATCC27853) | MIC [1, 7] [µg/mL] | MIC APAE006 + PMBN [5] | MIC (AECO001 (ATCC25922); [8]) [µg/mL] | MIC (APAE001 (ATCC27853); [9]) [µg/mL]
CC(C)(O)[C@H](NC(=O)c1ccc(C#CC#Cc2cccnc2)cc1)C(=O)NO [Example 88-5] | < 2 | < 2 | < 2 | < 2 | 16 to 64 (≈ 42.4 to 170 µM) | < 2 | 2 to 16 (≈ 5.3 to 42.4 µM) | – | – | – | – | – | – | – | – | – | – | –
C[C@@H](N)[C@H](NC(=O)c1ccc(CCc2ccc(CN3CCOCC3)cc2)cc1)C(=O)NO [Example 137-1] | – | – | – | – | – | – | – | B (MIC's of greater than 2.0 μg/mL to 16.0 μg/mL = B) | A (MIC's of 2.0 μg/mL or less = A) | D (MIC's of greater than 64.0 μg/mL = D) | A (MIC's of 2.0 μg/mL or less = A) | D (MIC's of greater than 64.0 μg/mL = D) | A (MIC's of 2.0 μg/mL or less = A) | B (MIC's of greater than 2.0 μg/mL to 16.0 μg/mL = B) | – | – | – | –
C[C@@H](O)[C@H](NC(=O)c1ccc(C#CC#Cc2ccncc2)cc1)C(=O)NO [Example 137-19] | – | – | 16 to 64 (≈ 44 to 176 µM) | < 2 | 16 to 64 (≈ 44 to 176 µM) | < 2 | – | – | – | – | – | – | – | – | < 2 | A (MIC's of 2.0 μg/mL or less = A) | 2 to 16 (≈ 5.5 to 44 µM) | 2 to 16 (≈ 5.5 to 44 µM)
C[C@@H](N)[C@H](NC(=O)c1ccc(C#CC(O)c2ccccc2)cc1)C(=O)NO (stereo partly shown) [Example 137-20] | – | – | 2 to 16 (≈ 5.44 to 43.5 µM) | 16 to 64 (≈ 43.5 to 174 µM) | 16 to 64 (≈ 43.5 to 174 µM) | 16 to 64 (≈ 43.5 to 174 µM) | – | – | – | – | – | – | – | – | 2 to 16 (≈ 5.44 to 43.5 µM) | A (MIC's of 2.0 μg/mL or less = A) | 16 to 64 (≈ 43.5 to 174 µM) | 16 to 64 (≈ 43.5 to 174 µM)
C[C@@H](N)[C@H](NC(=O)c1ccc(C#CC2CC2)cc1)C(=O)NO [Example 137-21] | – | – | 2 to 16 (≈ 6.64 to 53.1 µM) | 16 to 64 (≈ 53.1 to 212 µM) | 16 to 64 (≈ 53.1 to 212 µM) | 16 to 64 (≈ 53.1 to 212 µM) | – | – | – | – | – | – | – | – | < 2 | A (MIC's of 2.0 μg/mL or less = A) | 16 to 64 (≈ 53.1 to 212 µM) | 2 to 16 (≈ 6.64 to 53.1 µM)
C[C@@H](N)[C@H](NC(=O)c1ccc(C#CC#CC2CCNCC2)cc1)C(=O)NO [Example 137-22] | – | – | 16 to 64 (≈ 43.4 to 174 µM) | 16 to 64 (≈ 43.4 to 174 µM) | 16 to 64 (≈ 43.4 to 174 µM) | 16 to 64 (≈ 43.4 to 174 µM) | – | – | – | – | – | – | – | – | 2 to 16 (≈ 5.43 to 43.4 µM) | B (MIC's of greater than 2.0 μg/mL to 16.0 μg/mL = B) | 16 to 64 (≈ 43.4 to 174 µM) | 2 to 16 (≈ 5.43 to 43.4 µM)
CC(C)(N)[C@H](NC(=O)c1ccc(C#CC#CC2CCNCC2)cc1)C(=O)NO [Example 137-23] | – | – | 16 to 64 (≈ 41.8 to 167 µM) | 16 to 64 (≈ 41.8 to 167 µM) | 16 to 64 (≈ 41.8 to 167 µM) | 16 to 64 (≈ 41.8 to 167 µM) | – | – | – | – | – | – | – | – | < 2 | B (MIC's of greater than 2.0 μg/mL to 16.0 μg/mL = B) | 16 to 64 (≈ 41.8 to 167 µM) | 2 to 16 (≈ 5.23 to 41.8 µM)
O=C(NC(C(=O)NO)C1(O)CC1)c1ccc(C#Cc2ccc(CN3CCOCC3)cc2)cc1 (stereo not shown) [Example 137-24] | – | – | 2 to 16 (≈ 4.45 to 35.6 µM) | < 2 | 16 to 64 (≈ 35.6 to 142 µM) | < 2 | – | – | – | – | – | – | – | – | < 2 | A (MIC's of 2.0 μg/mL or less = A) | 2 to 16 (≈ 4.45 to 35.6 µM) | 2 to 16 (≈ 4.45 to 35.6 µM)
C[C@@H](N)[C@H](NC(=O)c1ccc(C#CC#CCCCO)cc1)C(=O)NO [Example 137-25] | – | – | 16 to 64 (≈ 46.6 to 186 µM) | 2 to 16 (≈ 5.82 to 46.6 µM) | 16 to 64 (≈ 46.6 to 186 µM) | 16 to 64 (≈ 46.6 to 186 µM) | – | – | – | – | – | – | – | – | < 2 | A (MIC's of 2.0 μg/mL or less = A) | 16 to 64 (≈ 46.6 to 186 µM) | 16 to 64 (≈ 46.6 to 186 µM)

From US9617256B2 (priority 2007, dated 2017)
